In ChEMBL document CHEMBL4052656, “The synthesis and evaluation of triazolopyrimidines as anti-tubercular agents” (Bioorg Med Chem, 2017):
The source made the active and inactive calls. The rule behind the calls is not given here.

Assays:
[1] = test system: Mycobacterium tuberculosis; test: Bactericidal activity against replicating Mycobacterium tuberculosis H37Rv after 21 days by agar dilution method; assay type: functional
[2] = test system: Mycobacterium tuberculosis; test: Bacteriostatic activity against replicating Mycobacterium tuberculosis H37Rv by agar dilution method; assay type: functional
[3] = Selectivity index, ratio of IC50 for human HepG2 cells to MIC90 for Mycobacterium tuberculosis H37Rv; assay type: toxicity; settings: read-out: Selectivity Index

Row | Compound | Activity [1] | Activity [2] | selectivity ratio [3]
1 | COc1ccc(CCNc2cc(-c3ccccn3)nc3ncnn23)cc1 | inactive | Active | 
2 | FC(F)(F)Oc1ccc(CCNc2cc(-c3ccccc3)nc3ncnn23)cc1 | inactive | Active | 
3 | COc1ccc(CC(=O)Nc2cc(-c3ccccc3)nc3ncnn23)cc1 | inactive | Active | 
4 | COc1ccc(CCNc2cc(-c3ccc(F)cc3)nc3ncnn23)cc1 |  |  | > 21
